Results from US10865191B2, “Heterocyclic compounds useful as modulators of TNF alpha” (BRISTOL-MYERS SQUIBB COMPANY, priority 2015, dated 2020).

The compounds below were run against TNFα (Homo sapiens, UniProt P01375) (assay: TNF induced HEK-Blue assay (NF-kB-driven secreted alkaline phosphatase reporter)). Conditions: TNFα 0.5 ng/mL, HEK-Blue-CD40L cells, 18 h; read-out: TNF induced HEK-Blue assay IC50 value.
Chain of TNFα (P01375 77-233 limits assumed): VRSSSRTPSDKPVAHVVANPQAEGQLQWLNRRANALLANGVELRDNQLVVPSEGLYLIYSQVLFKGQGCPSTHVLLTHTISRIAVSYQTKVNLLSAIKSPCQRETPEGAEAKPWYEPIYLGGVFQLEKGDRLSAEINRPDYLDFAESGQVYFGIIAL
Assay type: cell-based
How it was run: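 HEK-Blue-CD40L cells (NF-kB-driven SEAP reporter), 20,000/well, added after 30 min pre-incubation of compound (0.004–25 μM final) with TNFα 0.5 ng/mL final at 37 °C; 18 h incubation. SEAP read with QUANTI-Blue at 620 nm; IC50 from 4-parameter logistic fit, normalized to unstimulated and stimulated DMSO controls.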
With C[C@@H](Nc1c(Cl)cnc2ccc(-c3cnc(C(C)(C)O)nc3)cc12)c1cc(-c2nnn(C)n2)ccc1F [Example 413, (R)-2-(5-(3-chloro-4-((1-(2-fluoro-5-(2-methyl-2H-tetrazol-5-yl)phenyl)ethyl)amino)quinolin-6-yl)pyrimidin-2-yl)propan-2-ol] the IC50 was < 1000 nM.
With C[C@@H](Nc1c(Cl)cnc2ccc(-c3cnc(C(C)(C)O)nc3)cc12)c1cc(-c2ncn[nH]2)ccc1F [Example 414, (R)-2-(5-(3-chloro-4-((1-(2-fluoro-5-(1H-1,2,4-triazol-5-yl)phenyl)ethyl)amino)quinolin-6-yl)pyrimidin-2-yl)propan-2-ol] the IC50 was < 1000 nM.
In the case of COC(=O)c1ccc(F)c([C@@H](C)Nc2c(Cl)cnc3ccc(-c4cnc(C(C)(C)O)nc4)cc23)c1 [Example 415, Methyl (R)-3-(1-((3-chloro-6-(2-(2-hydroxypropan-2-yl)pyrimidin-5-yl)quinolin-4-yl)amino)ethyl)-4-fluorobenzoate], the IC50 is reported as < 1000 nM.
CNC(=O)c1ccc(F)c([C@@H](C)Nc2c(Cl)cnc3ccc(-c4cnc(C(C)(C)O)nc4)cc23)c1 [Example 416, (R)-3-(1-((3-chloro-6-(2-(2-hydroxypropan-2-yl)pyrimidin-5-yl)quinolin-4-yl)amino)ethyl)-4-fluoro-N-methylbenzamide] gave an IC50 of 1000 to 10000 nM.
For C[C@@H](Nc1c(Cl)cnc2ccc(-c3cnc(C(C)(C)O)nc3)cc12)c1cc(C(=O)N(C)C)ccc1F [Example 417, (R)-3-(1-((3-chloro-6-(2-(2-hydroxypropan-2-yl)pyrimidin-5-yl)quinolin-4-yl)amino)ethyl)-4-fluoro-N,N-dimethylbenzamide], the IC50 was < 1000 nM.
For Cc1nc2ccc(-c3cnc(C(C)(C)O)nc3)cc2c(N[C@@H](c2cc(C(C)(C)O)ccc2F)C(F)F)c1Cl [Example 418, (S)-2-(5-(3-chloro-4-((2,2-difluoro-1-(2-fluoro-5-(2-hydroxypropan-2-yl)phenyl)ethyl)amino)-2-methylquinolin-6-yl)pyrimidin-2-yl)propan-2-ol], the IC50 was < 1000 nM.
For C[C@@H](Nc1c(Cl)cnc2ccc(-c3cnc(C(C)(C)O)nc3)cc12)c1cc(-c2c[nH]nn2)ccc1F [Example 419, (R)-2-(5-(3-chloro-4-((1-(2-fluoro-5-(1H-1,2,3-triazol-4-yl)phenyl)ethyl)amino)quinolin-6-yl)pyrimidin-2-yl)propan-2-ol], the IC50 was < 1000 nM.
C[C@@H](Nc1c(Cl)cnc2ccc(-c3cnc(C(C)(C)O)nc3)cc12)c1cc(C=NO)ccc1F [Example 424, (R)-3-(1-((3-chloro-6-(2-(2-hydroxypropan-2-yl)pyrimidin-5-yl)quinolin-4-yl)amino)ethyl)-4-fluorobenzaldehyde oxime] was tested, and the IC50 was < 1000 nM.
With C[C@@H](Nc1c(Cl)cnc2ccc(-c3cnc(C(C)(C)O)nc3)cc12)c1cc(S(C)(=O)=O)ccc1F [Example 425, (R)-2-(5-(3-chloro-4-((1-(2-fluoro-5-(methylsulfonyl)phenyl)ethyl)amino)quinolin-6-yl)pyrimidin-2-yl)propan-2-ol] the IC50 was < 1000 nM.
C[C@@H](Nc1c(Cl)cnc2ccc(-c3cnc(C(C)(C)O)nc3)cc12)c1cc(S(N)(=O)=O)ccc1F [Example 426, (R)-3-(1-((3-chloro-6-(2-(2-hydroxypropan-2-yl)pyrimidin-5-yl)quinolin-4-yl)amino)ethyl)-4-fluorobenzenesulfonamide] was tested, and the IC50 was < 1000 nM.
COC(=O)CCS(=O)(=O)c1ccc(F)c([C@@H](C)Nc2c(Cl)cnc3ccc(-c4cnc(C(C)(C)O)nc4)cc23)c1 [Example 427, Methyl (R)-3-((3-(1-((3-chloro-6-(2-(2-hydroxypropan-2-yl)pyrimidin-5-yl)quinolin-4-yl)amino)ethyl)-4-fluorophenyl)sulfonyl)propanoate] showed an IC50 of 1000 to 10000 nM.
For C[C@@H](Nc1c(Cl)cnc2ccc(-c3cnc(C(C)(C)O)nc3)cc12)c1cc(-c2cc(C(=O)O)[nH]n2)ccc1F [Example 428, (R)-3-(3-(1-((3-chloro-6-(2-(2-hydroxypropan-2-yl)pyrimidin-5-yl)quinolin-4-yl)amino)ethyl)-4-fluorophenyl)-1H-pyrazole-5-carboxylic acid], the IC50 was 10000 to 25000 nM.
In the case of C[C@@H](Nc1c(Cl)cnc2ccc(-c3cnc(C(C)(C)O)nc3)cc12)c1cc(CN)ccc1F [Example 429, (R)-2-(5-(4-((1-(5-(aminomethyl)-2-fluorophenyl)ethyl)amino)-3-chloroquinolin-6-yl)pyrimidin-2-yl)propan-2-ol], the IC50 is reported as < 1000 nM.
C[C@@H](Nc1c(Cl)cnc2ccc(-c3cnc(C(C)(C)O)nc3)cc12)c1cc(CO)ccc1F [Example 430, (R)-2-(5-(3-chloro-4-((1-(2-fluoro-5-(hydroxymethyl)phenyl)ethyl)amino)quinolin-6-yl)pyrimidin-2-yl)propan-2-ol] was tested, and the IC50 was < 1000 nM.
In the case of Cc1nc2ccc(-c3cnc(C(C)(C)O)nc3)cc2c(N[C@H](C)c2cc(CO)ccc2F)c1Cl [Example 431, (R)-2-(5-(3-chloro-4-((1-(2-fluoro-5-(hydroxymethyl)phenyl)ethyl)amino)-2-methylquinolin-6-yl)pyrimidin-2-yl)propan-2-ol], the IC50 is reported as < 1000 nM.
Cc1nc2ccc(C3C=NC(C(C)(C)O)=NC3)cc2c(N[C@H](C)c2cc(CO)ccc2F)c1Cl (stereo partly drawn) [Example 432, (R)-2-(5-(3-chloro-4-((1-(2-fluoro-5-(hydroxymethyl)phenyl)ethyl)amino)-2-methylquinolin-6-yl)-4,5-dihydropyrimidin-2-yl)propan-2-ol] was tested, and the IC50 was < 1000 nM.
With Cc1nc2ccc(-c3cnc(C(C)(C)O)nc3)cc2c(N[C@H](C)c2cc(OCCO)ccc2F)c1Cl [Example 435, (R)-2-(5-(3-chloro-4-((1-(2-fluoro-5-(2-hydroxyethoxy)phenyl)ethyl)amino)-2-methylquinolin-6-yl)pyrimidin-2-yl)propan-2-ol] the IC50 was < 1000 nM.
In the case of Cc1nc2ccc(-c3cnc(C(C)(C)O)nc3)cc2c(N[C@H](C)c2cc(CC(=O)O)ccc2F)c1Cl [Example 436, (R)-2-(3-(1-((3-chloro-6-(2-(2-hydroxypropan-2-yl)pyrimidin-5-yl)-2-methylquinolin-4-yl)amino)ethyl)-4-fluorophenyl)acetic acid], the IC50 is reported as < 1000 nM.
In the case of Cc1nc2ccc(-c3cnc(C(C)(C)O)nc3)cc2c(N[C@H](C)c2cccc(OCCO)c2)c1Cl [Example 437, (R)-2-(5-(3-chloro-4-((1-(3-(2-hydroxyethoxy)phenyl)ethyl)amino)-2-methylquinolin-6-yl)pyrimidin-2-yl)propan-2-ol], the IC50 is reported as < 1000 nM.
For Cc1nc2ccc(-c3cnc(C(C)(C)O)nc3)cc2c(N[C@H](C)c2cccc(OCC(=O)O)c2)c1Cl [Example 438, (R)-2-(3-(1-((3-chloro-6-(2-(2-hydroxypropan-2-yl)pyrimidin-5-yl)-2-methylquinolin-4-yl)amino)ethyl)phenoxy)acetic acid], the IC50 was 1000 to 10000 nM.
For Cc1nc2ccc(-c3cnc(C(C)(C)O)nc3)cc2c(N[C@H](C)c2cc(OCC(=O)O)ccc2F)c1Cl [Example 439, (R)-2-(3-(1-((3-chloro-6-(2-(2-hydroxypropan-2-yl)pyrimidin-5-yl)-2-methylquinolin-4-yl)amino)ethyl)-4-fluorophenoxy)acetic acid], the IC50 was < 1000 nM.
For Cc1nc2ccc(-c3cnc(C(C)(C)O)nc3)cc2c(N[C@H](C)c2ccccc2F)c1Cl [Example 441, (R)-2-(5-(3-chloro-4-((1-(2-fluorophenyl)ethyl)amino)-2-methylquinolin-6-yl)pyrimidin-2-yl)propan-2-ol], the IC50 was < 1000 nM.
With Cc1nc2cc(F)c(-c3cnc(C(C)(C)O)nc3)cc2c(N[C@H](C)c2cc(OCCCO)ccc2F)c1Cl [Example 443, (R)-3-(3-(1-((3-chloro-7-fluoro-6-(2-(2-hydroxypropan-2-yl)pyrimidin-5-yl)-2-methylquinolin-4-yl)amino)ethyl)-4-fluorophenoxy)propan-1-ol] the IC50 was < 1000 nM.
Cc1nc2ccc(-c3cnc(C(C)(C)O)nc3)cc2c(N[C@H](C)c2cc(OCCCO)ccc2F)c1Cl [Example 444, (R)-3-(3-(1-((3-chloro-6-(2-(2-hydroxypropan-2-yl)pyrimidin-5-yl)-2-methylquinolin-4-yl)amino)ethyl)-4-fluorophenoxy)propan-1-ol] was tested, and the IC50 was < 1000 nM.
For Cc1nc2cc(F)c(-c3cnc(C(C)(C)O)nc3)cc2c(N[C@H](C)c2cc(CCC(N)=O)ccc2F)c1Cl [Example 445, (R)-3-(3-(1-((3-chloro-7-fluoro-6-(2-(2-hydroxypropan-2-yl)pyrimidin-5-yl)-2-methylquinolin-4-yl)amino)ethyl)-4-fluorophenyl)propanamide], the IC50 was < 1000 nM.
With Cc1nc2cc(F)c(-c3cnc(C(C)(C)O)nc3)cc2c(N[C@H](C)c2cc(CCC(=O)O)ccc2F)c1Cl [Example 446, (R)-3-(3-(1-((3-chloro-7-fluoro-6-(2-(2-hydroxypropan-2-yl)pyrimidin-5-yl)-2-methylquinolin-4-yl)amino)ethyl)-4-fluorophenyl)propanoic acid] the IC50 was 1000 to 10000 nM.
For Cc1nc2ccc(-c3cnc(N4CCNC(=O)C4)nc3)cc2c(N[C@H](C)c2cc(C(N)=O)ccc2F)c1Cl [Example 447, (R)-3-(1-((3-chloro-2-methyl-6-(2-(3-oxopiperazin-1-yl)pyrimidin-5-yl)quinolin-4-yl)amino)ethyl)-4-fluorobenzamide], the IC50 was < 1000 nM.
Cc1nc2cc(F)c(-c3cnc(N4CCNC(=O)C4)nc3)cc2c(N[C@H](C)c2cc(C(N)=O)ccc2F)c1Cl [Example 448, (R)-3-(1-((3-chloro-7-fluoro-2-methyl-6-(2-(3-oxopiperazin-1-yl)pyrimidin-5-yl)quinolin-4-yl)amino)ethyl)-4-fluorobenzamide] was tested, and the IC50 was < 1000 nM.
With Cc1nc2cc(F)c(-c3ccc(=O)[nH]c3)cc2c(N[C@H](C)c2cc(Br)ccc2F)c1Cl [Example 449, (R)-5-(4-((1-(5-bromo-2-fluorophenyl)ethyl)amino)-3-chloro-7-fluoro-2-methylquinolin-6-yl)pyridin-2(1H)-one] the IC50 was < 1000 nM.
